Test results from patent publication US10670605B2, “Cysteine reactive probes and uses thereof” (The Scripps Research Institute, priority 2015, dated 2020).
Blank lines part the entries; values can stand above or below the compound they belong to.

Assays:
Assay in all cases: Competitive isoTOP-ABPP in situ (fragment-treated cells)
Type in all cases: cell-based
[1] = molecular target: T1, cysteines in MDA-MB-231 and Ramos cells (Homo sapiens, UniProt P42765)
T1 sequence (P42765 1-397): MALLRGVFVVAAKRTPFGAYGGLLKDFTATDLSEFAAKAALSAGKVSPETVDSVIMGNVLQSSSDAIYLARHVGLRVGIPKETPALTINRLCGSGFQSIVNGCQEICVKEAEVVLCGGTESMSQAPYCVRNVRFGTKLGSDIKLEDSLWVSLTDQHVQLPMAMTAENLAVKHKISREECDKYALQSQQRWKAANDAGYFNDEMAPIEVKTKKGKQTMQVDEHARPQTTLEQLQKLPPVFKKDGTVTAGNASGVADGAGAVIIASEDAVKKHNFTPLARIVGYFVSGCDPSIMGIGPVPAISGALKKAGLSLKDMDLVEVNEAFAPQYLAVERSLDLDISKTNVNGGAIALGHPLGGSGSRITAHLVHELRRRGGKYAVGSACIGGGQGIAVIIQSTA

[2] = molecular target: T2, cysteines in MDA-MB-231 and Ramos cells (Homo sapiens, UniProt P22307)
T2 sequence (P22307 1-547): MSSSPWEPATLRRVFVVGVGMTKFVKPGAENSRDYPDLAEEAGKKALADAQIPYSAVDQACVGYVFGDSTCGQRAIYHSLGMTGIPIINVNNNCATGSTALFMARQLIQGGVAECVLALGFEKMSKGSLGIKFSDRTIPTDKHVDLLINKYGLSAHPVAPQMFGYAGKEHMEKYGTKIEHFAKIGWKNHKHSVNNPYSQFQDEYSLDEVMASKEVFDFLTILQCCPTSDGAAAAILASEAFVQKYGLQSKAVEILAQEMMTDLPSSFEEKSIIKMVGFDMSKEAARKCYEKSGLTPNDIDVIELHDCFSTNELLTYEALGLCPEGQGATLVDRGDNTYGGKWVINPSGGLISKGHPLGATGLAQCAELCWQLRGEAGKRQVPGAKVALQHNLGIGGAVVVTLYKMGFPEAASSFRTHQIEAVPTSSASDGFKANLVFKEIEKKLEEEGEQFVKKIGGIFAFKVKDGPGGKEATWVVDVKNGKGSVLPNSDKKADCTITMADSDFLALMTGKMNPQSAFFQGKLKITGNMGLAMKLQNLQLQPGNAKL

[3] = molecular target: T3, cysteines in MDA-MB-231 and Ramos cells (Homo sapiens, UniProt A6NDU8)
T3 sequence (A6NDU8 1-294): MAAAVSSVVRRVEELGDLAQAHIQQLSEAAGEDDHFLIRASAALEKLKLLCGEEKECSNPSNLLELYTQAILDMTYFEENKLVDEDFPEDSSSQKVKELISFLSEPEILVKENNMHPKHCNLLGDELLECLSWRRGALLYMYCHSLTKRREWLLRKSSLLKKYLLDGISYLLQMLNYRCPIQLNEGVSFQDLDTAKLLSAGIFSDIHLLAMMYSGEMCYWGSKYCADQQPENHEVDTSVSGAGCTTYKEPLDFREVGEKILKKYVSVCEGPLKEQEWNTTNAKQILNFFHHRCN

[4] = molecular target: T4, cysteines in MDA-MB-231 and Ramos cells (Homo sapiens, UniProt Q13155)
T4 sequence (Q13155 1-320): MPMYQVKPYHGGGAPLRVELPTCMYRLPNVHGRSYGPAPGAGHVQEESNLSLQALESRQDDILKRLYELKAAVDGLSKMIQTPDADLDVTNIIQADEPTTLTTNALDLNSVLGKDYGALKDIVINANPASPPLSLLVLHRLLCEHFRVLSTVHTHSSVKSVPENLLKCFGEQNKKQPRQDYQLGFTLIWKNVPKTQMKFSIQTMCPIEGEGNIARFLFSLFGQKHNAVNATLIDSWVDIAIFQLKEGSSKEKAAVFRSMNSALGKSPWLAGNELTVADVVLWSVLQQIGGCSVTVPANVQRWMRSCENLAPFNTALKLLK

[5] = molecular target: cysteines in MDA-MB-231 and Ramos cells (Homo sapiens, UniProt P04406)
Chain of cysteines in MDA-MB-231 and Ramos cells (Homo sapiens, UniProt P04406) (P04406 whole entry): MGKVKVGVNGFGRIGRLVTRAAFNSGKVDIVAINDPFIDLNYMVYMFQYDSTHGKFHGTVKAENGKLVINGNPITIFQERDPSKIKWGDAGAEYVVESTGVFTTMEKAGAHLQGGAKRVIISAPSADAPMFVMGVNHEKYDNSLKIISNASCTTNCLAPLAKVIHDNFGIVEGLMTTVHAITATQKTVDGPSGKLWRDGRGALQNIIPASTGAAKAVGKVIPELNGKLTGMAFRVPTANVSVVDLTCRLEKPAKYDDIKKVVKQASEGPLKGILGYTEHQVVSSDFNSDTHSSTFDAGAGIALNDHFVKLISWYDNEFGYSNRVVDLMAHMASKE

[6] = molecular target: T5, cysteines in MDA-MB-231 and Ramos cells (Homo sapiens, UniProt Q86SX6)
T5 sequence (Q86SX6 32-157): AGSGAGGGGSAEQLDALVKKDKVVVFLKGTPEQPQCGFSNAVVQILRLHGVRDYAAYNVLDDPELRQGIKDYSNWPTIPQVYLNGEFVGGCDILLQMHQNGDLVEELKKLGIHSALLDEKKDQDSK

[7] = molecular target: T6, cysteines in MDA-MB-231 and Ramos cells (Homo sapiens, UniProt O75521)
T6 sequence (O75521 39-394): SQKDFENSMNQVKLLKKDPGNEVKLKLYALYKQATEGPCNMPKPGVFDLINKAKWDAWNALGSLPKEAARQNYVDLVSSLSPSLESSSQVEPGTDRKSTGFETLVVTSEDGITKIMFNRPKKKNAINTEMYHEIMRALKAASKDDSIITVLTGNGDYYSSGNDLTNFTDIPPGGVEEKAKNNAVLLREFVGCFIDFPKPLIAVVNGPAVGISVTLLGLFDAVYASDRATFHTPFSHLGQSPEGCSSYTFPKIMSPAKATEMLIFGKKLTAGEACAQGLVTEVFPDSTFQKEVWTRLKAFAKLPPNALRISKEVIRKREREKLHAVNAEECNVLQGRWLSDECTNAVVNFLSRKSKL

[8] = molecular target: T7, cysteines in MDA-MB-231 and Ramos cells (Homo sapiens, UniProt Q9NS86)
T7 sequence (Q9NS86 1-450): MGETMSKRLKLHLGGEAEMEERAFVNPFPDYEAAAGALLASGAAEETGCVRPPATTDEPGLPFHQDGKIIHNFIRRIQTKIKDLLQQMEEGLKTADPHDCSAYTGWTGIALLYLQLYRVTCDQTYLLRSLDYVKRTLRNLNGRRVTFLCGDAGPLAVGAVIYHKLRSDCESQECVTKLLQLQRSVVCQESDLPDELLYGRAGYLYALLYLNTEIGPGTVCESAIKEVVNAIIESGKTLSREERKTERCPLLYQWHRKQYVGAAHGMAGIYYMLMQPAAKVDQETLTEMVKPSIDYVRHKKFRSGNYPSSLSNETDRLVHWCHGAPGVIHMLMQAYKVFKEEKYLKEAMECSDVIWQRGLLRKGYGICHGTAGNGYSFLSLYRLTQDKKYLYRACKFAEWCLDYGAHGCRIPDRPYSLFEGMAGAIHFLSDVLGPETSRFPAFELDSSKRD

SMILES: COc1ccc2c(c1)CCCN2C(=O)CCl [compound 2]
isoTOP-ABPP reactivity P42765_C92 ACAA2 ([1]; 200 μM, insitu, 231): 20.0
isoTOP-ABPP reactivity P22307_C71 SCP2 ([2]; 200 μM, insitu, 231): 3.2
isoTOP-ABPP reactivity P22307_C307 SCP2 ([2]; 200 μM, insitu, 231): 20.0
isoTOP-ABPP reactivity A6NDU8_C179 C5orf51 ([3]; 200 μM, insitu, 231): 4.2
isoTOP-ABPP reactivity Q13155_C291 AIMP2 ([4]; 200 μM, insitu, 231): 20.0
isoTOP-ABPP reactivity P04406_C152 GAPDH ([5]; 200 μM, insitu, 231): 20.0
isoTOP-ABPP reactivity Q865X6_C67 GLRX5 ([6]; 200 μM, insitu, 231): 1.1
isoTOP-ABPP reactivity O75521_C312 ECI2 ([7]; 200 μM, insitu, 231): 0.7
isoTOP-ABPP reactivity O75521_C380 ECI2 ([7]; 200 μM, insitu, 231): 0.6

SMILES: COc1ccc(C2CC(c3cccs3)=NN2C(=O)CCl)cc1 (centres unmarked) [compound 4]
isoTOP-ABPP reactivity P42765_C92 ACAA2 ([1]; 100 μM in situ 231): 3.7
isoTOP-ABPP reactivity P22307_C71 SCP2 ([2]; 100 μM in situ 231): 2.7
isoTOP-ABPP reactivity P22307_C94 SCP2 ([2]; 100 μM in situ 231): 20.0
isoTOP-ABPP reactivity P22307_C307 SCP2 ([2]; 100 μM in situ 231): 20.0
isoTOP-ABPP reactivity A6NDU8_C179 C5orf51 ([3]; 100 μM in situ 231): 3.0
isoTOP-ABPP reactivity Q13155_C23 AIMP2 ([4]; 100 μM in situ 231): 2.8
isoTOP-ABPP reactivity Q13155_C291 AIMP2 ([4]; 100 μM in situ 231): 20.0
isoTOP-ABPP reactivity Q9NS86_C187 LANCL2 ([8]; 100 μM in situ 231): 1.6
isoTOP-ABPP reactivity P04406_C152 GAPDH ([5]; 100 μM in situ 231): 1.6
isoTOP-ABPP reactivity Q865X6_C67 GLRX5 ([6]; 100 μM in situ 231): 1.4
isoTOP-ABPP reactivity O75521_C312 ECI2 ([7]; 100 μM in situ 231): 1.0
isoTOP-ABPP reactivity O75521_C380 ECI2 ([7]; 100 μM in situ 231): 1.6

SMILES: COc1cc2c(cc1OC)CN(C(=O)CCl)CC2 [compound 8]
isoTOP-ABPP reactivity P42765_C92 ACAA2 ([1]; 200 μM, insitu, 231): 20.0
isoTOP-ABPP reactivity P22307_C71 SCP2 ([2]; 200 μM, insitu, 231): 20.0
isoTOP-ABPP reactivity P22307_C307 SCP2 ([2]; 200 μM, insitu, 231): 20.0
isoTOP-ABPP reactivity Q13155_C23 AIMP2 ([4]; 200 μM, insitu, 231): 2.7
isoTOP-ABPP reactivity Q13155_C291 AIMP2 ([4]; 200 μM, insitu, 231): 2.4
isoTOP-ABPP reactivity Q9NS86_C187 LANCL2 ([8]; 200 μM, insitu, 231): 6.1
isoTOP-ABPP reactivity P04406_C152 GAPDH ([5]; 200 μM, insitu, 231): 1.1
isoTOP-ABPP reactivity Q865X6_C67 GLRX5 ([6]; 200 μM, insitu, 231): 1.0
isoTOP-ABPP reactivity O75521_C312 ECI2 ([7]; 200 μM, insitu, 231): 0.5
isoTOP-ABPP reactivity O75521_C380 ECI2 ([7]; 200 μM, insitu, 231): 0.8

SMILES: O=C(CCl)N1CCC(Cc2ccccc2)CC1 [compound 9]
isoTOP-ABPP reactivity P42765_C92 ACAA2 ([1]; 200 μM, insitu, 231): 4.3
isoTOP-ABPP reactivity A6NDU8_C179 C5orf51 ([3]; 200 μM, insitu, 231): 20.0
isoTOP-ABPP reactivity Q13155_C291 AIMP2 ([4]; 200 μM, insitu, 231): 1.9
isoTOP-ABPP reactivity Q9NS86_C187 LANCL2 ([8]; 200 μM, insitu, 231): 15
isoTOP-ABPP reactivity P04406_C152 GAPDH ([5]; 200 μM, insitu, 231): 1.7
isoTOP-ABPP reactivity Q865X6_C67 GLRX5 ([6]; 200 μM, insitu, 231): 5.1
isoTOP-ABPP reactivity O75521_C312 ECI2 ([7]; 200 μM, insitu, 231): 0.5
isoTOP-ABPP reactivity O75521_C380 ECI2 ([7]; 200 μM, insitu, 231): 0.7

Second part, the compound after the results:

isoTOP-ABPP ratio P42765_C92 ([1]; 200 μM, insitu, 231): 3.7
isoTOP-ABPP ratio P42765_C92 ([1]; 200 μM, insitu, ramos): 1.1
isoTOP-ABPP ratio P22307_C71 ([2]; 200 μM, insitu, 231): 8.3
isoTOP-ABPP ratio A6NDU8_C179 ([3]; 200 μM, insitu, 231): 1.3
isoTOP-ABPP ratio Q13155_C23 ([4]; 200 μM, insitu, 231): 2.3
isoTOP-ABPP ratio Q13155_C291 ([4]; 200 μM, insitu, 231): 1.7
isoTOP-ABPP ratio Q9NS86_C187 ([8]; 200 μM, insitu, 231): 6.3
isoTOP-ABPP ratio P04406_C152 ([5]; 200 μM, insitu, 231): 1.0
isoTOP-ABPP ratio P04406_C152 ([5]; 200 μM, insitu, ramos): 0.9
isoTOP-ABPP ratio Q86SX6_C67 ([6]; 200 μM, insitu, 231): 1.3
isoTOP-ABPP ratio Q86SX6_C67 ([6]; 200 μM, insitu, ramos): 1.1
isoTOP-ABPP ratio O75521_C312 ([7]; 200 μM, insitu, 231): 5.0
isoTOP-ABPP ratio O75521_C380 ([7]; 200 μM, insitu, 231): 4.8
SMILES: O=C(CCl)N1CCN(S(=O)(=O)c2ccccc2F)CC1 [compound 10]

isoTOP-ABPP ratio P22307_C71 ([2]; 100 μM in situ 231): 2.0
isoTOP-ABPP ratio, cysteine P22307_C94 ([2]; 100 μM in situ 231): 3.3
isoTOP-ABPP ratio, cysteine P22307_C307 ([2]; 100 μM in situ 231): 2.9
isoTOP-ABPP ratio A6NDU8_C179 ([3]; 100 μM in situ 231): 0.7
isoTOP-ABPP ratio Q13155_C23 ([4]; 100 μM in situ 231): 1.2
isoTOP-ABPP ratio Q13155_C291 ([4]; 100 μM in situ 231): 0.9
isoTOP-ABPP ratio Q9NS86_C187 ([8]; 100 μM in situ 231): 0.8
isoTOP-ABPP ratio P04406_C152 ([5]; 100 μM in situ 231): 0.8
isoTOP-ABPP ratio Q86SX6_C67 ([6]; 100 μM in situ 231): 1.4
isoTOP-ABPP ratio O75521_C380 ([7]; 100 μM in situ 231): 0.8
SMILES: Cn1cc(S(=O)(=O)N2CCOCC2)cc1C(=O)NC(=O)CCl [compound 11]
